Assay results published in US12668586B2, “AhR inhibitor, use thereof, and preparation method therefor” (CHONGQING PHARSCIN INNOBIO CO., LTD., priority 2021, dated 2026).

Target: T1, AhR (Homo sapiens, UniProt P35869)
T1 sequence (P35869 11-848): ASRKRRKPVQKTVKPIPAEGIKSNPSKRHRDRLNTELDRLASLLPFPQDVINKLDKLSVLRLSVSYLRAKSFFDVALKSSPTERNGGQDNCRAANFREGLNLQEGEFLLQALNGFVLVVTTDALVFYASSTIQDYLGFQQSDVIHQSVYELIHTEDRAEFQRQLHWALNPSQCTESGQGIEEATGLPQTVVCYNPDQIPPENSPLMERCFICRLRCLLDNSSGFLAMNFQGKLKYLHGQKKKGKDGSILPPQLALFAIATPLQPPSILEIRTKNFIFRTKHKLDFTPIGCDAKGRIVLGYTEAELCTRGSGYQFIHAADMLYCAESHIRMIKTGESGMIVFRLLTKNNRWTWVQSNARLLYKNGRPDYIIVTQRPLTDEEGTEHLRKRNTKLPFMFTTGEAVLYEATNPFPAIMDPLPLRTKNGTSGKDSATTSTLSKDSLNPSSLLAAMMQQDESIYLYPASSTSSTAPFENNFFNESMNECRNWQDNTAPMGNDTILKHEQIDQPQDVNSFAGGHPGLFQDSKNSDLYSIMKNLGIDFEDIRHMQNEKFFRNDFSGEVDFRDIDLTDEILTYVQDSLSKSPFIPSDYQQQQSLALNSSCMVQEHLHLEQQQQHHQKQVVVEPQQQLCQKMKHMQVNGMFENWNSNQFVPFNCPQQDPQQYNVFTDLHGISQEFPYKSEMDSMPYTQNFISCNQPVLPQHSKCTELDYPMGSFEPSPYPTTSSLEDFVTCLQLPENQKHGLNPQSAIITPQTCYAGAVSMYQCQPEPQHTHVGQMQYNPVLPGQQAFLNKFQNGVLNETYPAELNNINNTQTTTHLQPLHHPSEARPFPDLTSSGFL
Test: AhR inhibitory activity experiment, in vitro assay 1: HepG2-Lucia AhR cells, Lucia luciferase reporter (QUANTI-Luc)
Assay type: cell-based
Conditions: 24 hours incubation at 37° C., Lucia luciferase in supernatant, read-out: AhR inhibitory activity C50
Procedure: Test Example: AhR Inhibitory Activity Experiment
When QUANTI-Luc™ (InvivoGen Company) testing reagents are used, AhR gene signaling pathways can be studied by monitoring the activity of Lucia luciferase in the cell culture supernatant.
In Vitro Assay 1: Assay on Inhibitory Activity in Human Cell Lines
Adherent cell layers of HepG2-Lucia™ AhR cells in a logarithmic growth phase were washed with PBS, and then the cells were isolated with trypsin. The isolated cells were centrifuged at 1000 RPM for 5 minutes, the supernatant was removed, and the cells were re-suspended with a test medium by 1.25×10^5 cells/ml.
20,000 cells were added to each well of a 96-well plate, and the 96-well plate was placed in a CO2 incubator to incubate the cells at 37° C. for 24 hours in the absence (negative control) or presence of test compounds with gradient increasing concentrations (typical dilutions: 169 pmol/L, 0.5 nmol/L, 1.5 nmol/L; 4.6 nmol/L, 13.7 nmol/L, 41 nmol/L, 123 nmol/L, 370 nmol/L, 1.1 μmol/L, 3.3 μmol/L and 10 μmol/L, in triplicate).
The 20 μl/well cell supernatant was transferred to a black 96-well plate, a 50 μL/well QUANTI-Luc™ solution was added, and the activity of Lucia luciferase was measured on a multifunctional ELISA reader Spark 10 M (Tecan Company) through a QUANTI-Luc™ luciferase assay system.
Experimental results are shown in Table 1, wherein for IC50 values, “++++” represents IC50<0.05 μM; “+++” represents IC50 between 0.05 μM and 0.2 μM; “++” represents IC50 between 0.2 μM and 1.0 μM; and “+” represents IC50>1.0 μM.

IC50 [nM] | SMILES
< 50 | C[C@H](NC(=O)c1cc(-c2ccc(Cl)cc2)nc(-c2cnn(C)c2)n1)c1ccc2ncn(C)c2c1 [Compound 54, (S)-6-(4-chlorophenyl)-N-(1-(1-methyl-1H-benzo[d]imidazol-6-yl)ethyl)-2-(1-methyl-1H-pyrazol-4-yl)pyrimidine-4-formamide]
< 50 | O=C(N[C@H]1CCc2ncccc21)c1cc(-c2ccc(C(F)(F)F)cc2)nc(-c2cccnc2)n1 [Compound 55, (S)-6-(4-trifluoromethylphenyl)-N-((S)-6,7-dihydro-5H-cyclopentano[B]pyridin-5-yl)-2-(pyridin-3-yl)pyrimidine-4-formamide]
< 50 | Cn1cc(-c2nc(C(=O)N[C@H]3CCc4ncccc43)cc(-c3ccc(C(F)(F)F)cc3)n2)cn1 [Compound 56, (S)-6-(4-trifluoromethylphenyl)-N-((S)-6,7-dihydro-5H-cyclopentano[B]pyridin-5-yl)-2-(1-methyl-1H-pyrazol-4-yl)pyrimidine-4-formamide]
< 50 | C[C@H](NC(=O)c1cc(-c2ccc(Cl)cc2)nc(-c2cnn(C)c2)n1)c1ccc(C#N)c(F)c1 [Compound 57, (S)-6-(4-chlorophenyl)-N-(1-(3-fluoro-4-cyanophenyl)ethyl)-2-(1-methyl-1H-pyrazol-4-yl)pyrimidine-4-formamide]
50 to 200 | C[C@H](NC(=O)c1cc(-c2ccc(C#N)cc2)nc(-c2cnn(C)c2)n1)c1ccnc(F)c1 [Compound 58, (S)-6-(4-cyanophenyl)-N-(1-(2-fluoro-4-pyridine)ethyl)-2-(1-methyl-1H-pyrazol-4-yl)pyrimidine-4-formamide]
> 1000 | Cc1noc(C)c1-c1nc(C(=O)N[C@@H](C)c2ccnc(F)c2)cc(-c2ccc(Cl)cc2)n1 [Compound 59, (S)-6-(4-chlorophenyl)-N-(1-(2-fluoro-4-pyridine)ethyl)-2-(3,5-dimethylisoxazol-4-yl)pyrimidine-4-formamide]
> 1000 | C[C@H](NC(=O)c1cc(-c2ccc(Cl)cc2)nc(-c2ccc(C#N)cc2)n1)c1ccnc(F)c1 [Compound 60, (S)-6-(4-chlorophenyl)-N-(1-(2-fluoro-4-pyridine)ethyl)-2-(p-cyanophenyl)pyrimidine-4-formamide]
> 1000 | Cn1cc(-c2nc(C(=O)N[C@H]3CCc4ncccc43)cc(-c3ccc(OC(F)(F)F)cc3)n2)cn1 [Compound 61, (S)-6-(4-trifluoromethoxyphenyl)-N-((S)-6,7-dihydro-5H-cyclopentano[B]pyridin-5-yl)-2-(1-methyl-1H-pyrazol-4-yl)pyrimidine-4-formamide]
< 50 | O=C(N[C@H]1CCc2ncccc21)c1cc(-c2ccc(Cl)cc2)nc(-c2ccnc(F)c2)n1 [Compound 62, (S)-6-(4-chlorophenyl)-N-((S)-6,7-dihydro-5H-cyclopentano[B]pyridin-5-yl)-2-(2-fluoro-4-pyridine)pyrimidine-4-formamide]
